How the values were obtained:
[1] = microbe, parasite or virus in culture; settings: Mycobacterium tuberculosis, 96 h, read-out: pIC50 (converted)
[2] = microbe, parasite or virus in culture; settings: Mycobacterium tuberculosis, 72 h, read-out: pIC50 (converted)

SMILES | IC50 [1] | IC50 [2]
Cc1nsc(C(=O)NCCCc2ccccc2)n1 | 47.1 µM | > 50.1 µM
NCCc1nsc2ccccc12 | 189 µM | 129 µM
CCCSc1ccc(NC(=O)NCCN)cc1 | 233 µM | 187 µM
COc1ccc(C(=O)NC(C)Cn2cccn2)c(O)c1 (configuration not stated) | 276 µM | 256 µM
COc1ccnc(NC(=O)NCc2cccs2)c1 | 119 µM | 90.3 µM
O=C(COCC(F)(F)F)NCc1cn2ccccc2n1 | > 501 µM | 92.3 µM
Fc1ccccc1-c1nc(CNCCn2cccn2)cs1 | > 50.1 µM | > 50.1 µM
CCN(Cc1ccc(Cl)c(Cl)c1)C(=O)CCS(C)(=O)=O | > 501 µM | 129 µM
O=C(NCC(=O)N1CCc2ccccc2C1)c1cnccn1 | > 50.1 µM | > 50.1 µM
CC(=O)N1CCC(C(=O)c2ccc(C)cc2)CC1 | > 501 µM | 100 µM
NCC(=O)N(Cc1cccs1)Cc1cccs1 | 68.7 µM | 114 µM
Cc1cc2c(cc1S(=O)(=O)N1CCCC(N)C1)OCO2 (configuration not stated) | > 501 µM | 261 µM
O=C(NCC1COCCO1)c1cnc2ccccc2c1 (configuration not stated) | > 501 µM | > 501 µM
COc1cc(C(=O)NC(C)CC#N)ccc1C (configuration not stated) | 184 µM | 185 µM
CC(C)c1csc(C(=O)N(C)c2ccc(Br)cn2)n1 | 25.3 µM | 21.7 µM
Cc1cnn(CCNc2ccc(F)cn2)c1 | > 501 µM | 365 µM
CC(C)c1cc(N(C)Cc2noc(C3CCCC3)n2)n2nccc2n1 | 15.5 µM | 9.63 µM
CCc1nnc2n1CCN(C(=O)CN(CC)CC)C2 | > 50.1 µM | > 50.1 µM
Cc1cnc(N2CCC(O)CC2)c(Br)c1 | > 501 µM | > 501 µM
Cc1n[nH]cc1CNCC(c1ccsc1)N(C)C (configuration not stated) | > 50.1 µM | > 50.1 µM
COc1ccccc1C(O)CNc1cccc(C)n1 (configuration not stated) | 136 µM | > 501 µM
O=S(=O)(NCc1nccs1)N1CCc2ccccc2C1 | 146 µM | 133 µM

SMILES | IC50 [1] | IC50 [2]
CNC(=O)C1CCN(C(=O)CCc2cccs2)CC1 | 111 µM | 38.8 µM
CN(C)C(CN)c1cccc(F)c1 (configuration not stated) | > 501 µM | > 501 µM
Cn1nccc1C(=O)N1CCC(Oc2ccccc2)C1 (configuration not stated) | 161 µM | 232 µM
O=C(CCn1cccn1)N1CCCCCC1 | > 501 µM | 110 µM
CCOCCOc1cc(C)ccc1CN | > 501 µM | 208 µM
CCCOc1ccc(NS(=O)(=O)N(C)C)cc1Cl | > 501 µM | 196 µM
NC(=O)COc1cccc(CN2CCC(F)CC2)c1 | > 501 µM | > 501 µM
COC1CCN(C(=O)CCc2ccc(F)cc2F)C1 (configuration not stated) | 21.4 µM | 206 µM
O=C(NC1CCCN(CCCc2ccccc2)C1)c1ccc(Cl)s1 (configuration not stated) | 24.4 µM | 33.6 µM
CC(=O)c1cc(C(=O)NCCSC(F)(F)F)[nH]n1 | 79.5 µM | 274 µM
O=C(CCN1CCCC1CO)NCc1ccccc1Cl (configuration not stated) | > 501 µM | 460 µM
Cc1cccc(C2(O)CCN(Cc3ccccc3N3CCCC3)CC2)c1 | 20.7 µM | 12.1 µM
CCCc1nc(CN2Cc3ncccc3C2=O)cs1 | 119 µM | 120 µM
O=c1[nH]cnc2cccc(O)c12 | > 501 µM | > 501 µM
Cc1cnn(C2CCCN(C(=O)c3ccnc(N(C)C)c3)C2)c1 (configuration not stated) | > 50.1 µM | > 50.1 µM
COc1ccc(NC(=O)CNc2ccc(Br)cc2F)cc1 | > 50.1 µM | > 50.1 µM
CC(=O)N1CCN(Cc2cc(Br)c3c(c2)OCO3)CC1 | 394 µM | > 501 µM
O=C(NC1CC1)c1cccc(CNc2ccccn2)c1 | > 501 µM | 220 µM
CC1=C[C@@H](CN2CCCC2)[C@H](C(C)C)C[C@H]1Cc1nnc(C)o1 | > 50.1 µM | > 50.1 µM
CC(C)c1cccc(NC(=O)CN2CCC(O)CC2)c1 | 359 µM | 116 µM
O=C(c1ccno1)N1CCCC(c2ncncc2-c2ccncc2)C1 (configuration not stated) | > 50.1 µM | > 50.1 µM
COCCOCCCNC(=O)c1cn2cc(C)nc2s1 | > 501 µM | 271 µM

SMILES | IC50 [1] | IC50 [2]
CN(Cc1ccco1)C(=O)c1cccc(C#N)c1 | > 501 µM | > 501 µM
CC(Oc1ccc(Cl)cc1)C(=O)N(C)C (configuration not stated) | > 501 µM | > 501 µM
CCc1cccc2c1OCCC2N (configuration not stated) | > 501 µM | > 501 µM
CC(C)(C)c1n[nH]cc1CNCC1CCN(C2CC2)C1 (configuration not stated) | 27.6 µM | 28.5 µM
Cc1ccc(-n2nnnc2NCC2CCCO2)cc1 (configuration not stated) | 119 µM | 113 µM
Cc1cccnc1CN1CCOC(Cc2cccc3ccccc23)C1 (configuration not stated) | > 50.1 µM | > 50.1 µM
CCC(N)c1cnn(CC)c1 (configuration not stated) | > 501 µM | > 501 µM
CCC(CC)C(CN)N(C)C (configuration not stated) | 204 µM | 78.1 µM
CN(C)S(=O)(=O)c1ccc(CN2CCC(C(N)=O)CC2)o1 | > 50.1 µM | > 50.1 µM
CS(=O)(=O)Nc1cccc(C(=O)Nc2ccccc2)c1 | 267 µM | 130 µM
COc1ccc(F)cc1C(=O)OCC(=O)NC1CC1 | 212 µM | 105 µM
Cc1cc(C)nc(N2CCCC(c3cccc(-n4ccnc4)n3)C2)n1 (configuration not stated) | 28.7 µM | 26.9 µM
CSCc1ccc(C(=O)NCCCNc2ccc(C(F)(F)F)cn2)cc1 | > 50.1 µM | > 50.1 µM
NC(=O)NC(=O)CCN1CCCN(c2nccs2)CC1 | 25.1 µM | 35.5 µM
c1csc(CN2CC(c3nc(-c4cnccn4)no3)C2)c1 | > 50.1 µM | > 50.1 µM
NCC(NS(=O)(=O)CCc1cccs1)C1CC1 (configuration not stated) | 47.8 µM | 167 µM
Cc1ccc(NC(=O)NCCS(=O)(=O)N(C)C)cc1Cl | 401 µM | 205 µM
O=C(c1cc(-c2ccn(CC3CC3)n2)n2ccccc12)N1CCCO1 | 1.05 µM | 3.54 µM
COc1cc(Cl)ccc1CN | 279 µM | > 501 µM
CN(C)S(=O)(=O)NC(c1ccccc1)c1ccccc1 | > 501 µM | 195 µM
CN1CC(=O)Nc2cccnc21 | 314 µM | 157 µM
O=C(OCCNc1ncccn1)c1ccc(Cl)s1 | > 50.1 µM | 29.7 µM

SMILES | IC50 [1] | IC50 [2]
COc1ccc(C2CCN(CC(=O)NC(N)=O)C2)cc1 (configuration not stated) | > 501 µM | > 501 µM
Clc1cncc(NCC2CN(C3CC3)CCO2)n1 (configuration not stated) | 311 µM | 259 µM
CC1c2ccsc2CCN1CCC(=O)NC(N)=O (configuration not stated) | 128 µM | 78.1 µM
COC(=O)CNC(=O)c1ccc(C)c(-n2cccc2)c1 | > 501 µM | > 501 µM
N#Cc1ccc(NCc2cccc(COC3CCOCC3)c2)nc1 | > 50.1 µM | > 50.1 µM
COCCN1CCN(C(C)C(=O)Nc2ccnn2C(C)C)CC1 (configuration not stated) | > 50.1 µM | > 50.1 µM
NC(=O)CN(Cc1ccc(Br)cc1)C(=O)c1ccco1 | > 501 µM | 427 µM
CC1(C)CCC(C(=O)N2CCCO2)c2ccccc21 (configuration not stated) | > 50.1 µM | > 50.1 µM
O=C(c1ccc(NCc2cccc(F)c2)cc1)N1CCCC1 | > 50.1 µM | > 50.1 µM
CCc1ccc(C(=O)CSc2nnc(N)[nH]2)cc1 | 449 µM | 176 µM
CNC(=O)CN1CCC(OCCCc2ccccc2)C1 (configuration not stated) | > 501 µM | 161 µM
CCC1(CC)CN(C(=O)NCCC(C)C)CCS1(=O)=O | 407 µM | > 501 µM
O=C(NCCO)c1ccc(OCc2cccs2)cc1 | > 501 µM | 378 µM
COc1cccc(S(=O)(=O)CCN2CCN(C)CC2)c1 | > 501 µM | > 501 µM
COc1cc(C(=O)CCN(C)C)cc(OC)c1OC | 338 µM | 196 µM
CN1CCCN(C(=O)c2ccco2)c2ccccc21 | 191 µM | 119 µM
Cc1cc(S(=O)(=O)NC(CN)C2CC2)c(F)cc1F (configuration not stated) | 18.9 µM | > 501 µM
CN1CCc2nc(NC(=O)CC(C)(C)C)sc2C1 | 127 µM | 210 µM
COC(=O)c1ccc(N2CCC(N(C)c3ccccc3)CC2)nn1 | 12.3 µM | 37 µM
CC(Nc1ccc(Br)cc1)c1nc(C2CC2)no1 (configuration not stated) | 0.994 µM | 2.01 µM
OCC(Nc1ncccc1Br)c1ccccc1 (configuration not stated) | 327 µM | 184 µM
CCc1c(C)n(CCC#N)c2nc3ccccc3n2c1=O | > 50.1 µM | > 50.1 µM

SMILES | IC50 [1] | IC50 [2]
NC(=O)c1ccsc1NC(=O)CCN1CCCCC1 | > 501 µM | 495 µM
O=C(c1cnsn1)N1CCN(c2ccccn2)CC1 | 51.4 µM | 84.6 µM
Cc1ccc2[nH]c(=O)cc(C(=O)NCCCn3nccc3C3CC3)c2c1 | > 50.1 µM | 26.1 µM
Cc1nsc(C(=O)NCCc2ccc(F)cc2)n1 | 12.5 µM | 1.84 µM
OC(CN1CCOC2(CCCC2)C1)c1ccccc1 (configuration not stated) | 172 µM | 379 µM
CCC(C)Oc1ccc(CNCCNS(C)(=O)=O)cc1Cl (configuration not stated) | > 50.1 µM | > 50.1 µM
COc1cccc(-c2cnn(CCC(N)=O)c2)c1F | > 501 µM | 355 µM
CC(=O)c1ccccc1NC(=O)CN1CC[C@H](N)C1 | > 501 µM | 158 µM
NCCCc1cccc(F)c1 | > 501 µM | 74 µM
COc1cc(OC)cc(N2CCCNCC2)c1 | 150 µM | 112 µM
Cc1ccc(NC2CCCN(Cc3ccc(Cl)cc3)C2)nn1 (configuration not stated) | 6.67 µM | 7.35 µM
O=C(NC[C@H]1CC[C@H](c2ccnc3ncnn32)CC1)C1CC1 | > 50.1 µM | > 50.1 µM
O=C(NCCc1ccc(F)c(F)c1)N1CCCC(O)C1 (configuration not stated) | > 501 µM | > 501 µM
CN(C)C(CN)C1CCCCC1 (configuration not stated) | 252 µM | 279 µM
O=C(c1cc(C2CC2)[nH]n1)N1CCN(Cc2ccc3c(c2)OCO3)CC1 | 10.3 µM | 9.81 µM
NCc1nc(-c2ccc(F)cc2)c[nH]1 | > 501 µM | 222 µM
COCC(=O)NCc1noc(-c2cccc(C)c2)n1 | 160 µM | 265 µM
c1ccc(Oc2cccc(NCc3csnn3)c2)nc1 | 171 µM | 298 µM
